Assay results: the NIST ThermoML archive (doi:10.1021/acs.jced.8b00554)

Conditions: Liquid, Vibrating tube method

CCCO [propan-1-ol]
Conditions | mass density [kg/m3]
313.15 K, 100 kPa | 787.65
313.15 K, 1020 kPa | 788.65
313.15 K, 2000 kPa | 789.51
313.15 K, 3010 kPa | 790.39
313.15 K, 4020 kPa | 791.23
313.15 K, 5020 kPa | 792.09
313.15 K, 6010 kPa | 792.93
313.15 K, 7020 kPa | 793.75
313.15 K, 8030 kPa | 794.57
313.15 K, 9010 kPa | 795.39
313.15 K, 10020 kPa | 796.2
313.15 K, 11010 kPa | 796.99
313.15 K, 12020 kPa | 797.79
313.15 K, 13010 kPa | 798.57
313.15 K, 14020 kPa | 799.35
313.15 K, 15030 kPa | 800.12
313.15 K, 16010 kPa | 800.88
313.15 K, 17020 kPa | 801.63
313.15 K, 18010 kPa | 802.39
313.15 K, 19020 kPa | 803.13
313.15 K, 20010 kPa | 803.87
323.15 K, 100 kPa | 779.29
323.15 K, 1020 kPa | 780.33
323.15 K, 2020 kPa | 781.26
323.15 K, 3010 kPa | 782.17
323.15 K, 4030 kPa | 783.07
323.15 K, 5010 kPa | 783.96
323.15 K, 6010 kPa | 784.85
323.15 K, 7000 kPa | 785.72
323.15 K, 8010 kPa | 786.58
323.15 K, 9020 kPa | 787.44
323.15 K, 10030 kPa | 788.29
323.15 K, 11020 kPa | 789.12
323.15 K, 12010 kPa | 789.95
323.15 K, 13020 kPa | 790.78
323.15 K, 14030 kPa | 791.59
323.15 K, 15030 kPa | 792.41
323.15 K, 16000 kPa | 793.2
323.15 K, 17010 kPa | 794
323.15 K, 18030 kPa | 794.78
323.15 K, 19030 kPa | 795.56
323.15 K, 20020 kPa | 796.33
333.15 K, 100 kPa | 770.58
333.15 K, 1030 kPa | 771.74
333.15 K, 2020 kPa | 772.72
333.15 K, 3020 kPa | 773.69
333.15 K, 4030 kPa | 774.64
333.15 K, 5020 kPa | 775.59
333.15 K, 6020 kPa | 776.52
333.15 K, 7010 kPa | 777.45
333.15 K, 8020 kPa | 778.36
333.15 K, 9010 kPa | 779.27
333.15 K, 10030 kPa | 780.16
333.15 K, 11020 kPa | 781.05
333.15 K, 12030 kPa | 781.93
333.15 K, 13010 kPa | 782.79
333.15 K, 14030 kPa | 783.65
333.15 K, 15030 kPa | 784.5
333.15 K, 16000 kPa | 785.34
333.15 K, 17030 kPa | 786.17
333.15 K, 18010 kPa | 787
333.15 K, 19020 kPa | 787.81
333.15 K, 20000 kPa | 788.62
343.15 K, 100 kPa | 761.6
343.15 K, 1010 kPa | 762.86
343.15 K, 2020 kPa | 763.91
343.15 K, 3000 kPa | 764.93
343.15 K, 4020 kPa | 765.95
343.15 K, 5020 kPa | 766.96
343.15 K, 6020 kPa | 767.95
343.15 K, 7030 kPa | 768.93
343.15 K, 8020 kPa | 769.91
343.15 K, 9000 kPa | 770.86
343.15 K, 10020 kPa | 771.81
343.15 K, 11030 kPa | 772.74
343.15 K, 12020 kPa | 773.67
343.15 K, 13010 kPa | 774.59
343.15 K, 14000 kPa | 775.49
343.15 K, 15010 kPa | 776.39
343.15 K, 16020 kPa | 777.28
343.15 K, 17020 kPa | 778.16
343.15 K, 18000 kPa | 779.02
343.15 K, 19020 kPa | 779.89
343.15 K, 20010 kPa | 780.74
353.15 K, 100 kPa | 752.39
353.15 K, 1010 kPa | 753.65
353.15 K, 2010 kPa | 754.76
353.15 K, 2990 kPa | 755.86
353.15 K, 4000 kPa | 756.96
353.15 K, 5000 kPa | 758.04
353.15 K, 6000 kPa | 759.1
353.15 K, 7010 kPa | 760.14
353.15 K, 7990 kPa | 761.16
353.15 K, 8990 kPa | 762.2
353.15 K, 9990 kPa | 763.21
353.15 K, 11010 kPa | 764.2
353.15 K, 12010 kPa | 765.19
353.15 K, 13000 kPa | 766.16
353.15 K, 14010 kPa | 767.13
353.15 K, 15010 kPa | 768.07
353.15 K, 16010 kPa | 769.01
353.15 K, 17010 kPa | 769.94
353.15 K, 17990 kPa | 770.86
353.15 K, 18990 kPa | 771.76
353.15 K, 19990 kPa | 772.67
363.15 K, 100 kPa | 743.01
363.15 K, 1020 kPa | 744.08
363.15 K, 2030 kPa | 745.28
363.15 K, 3030 kPa | 746.48
363.15 K, 4020 kPa | 747.65
363.15 K, 5000 kPa | 748.81
363.15 K, 6020 kPa | 749.94
363.15 K, 7020 kPa | 751.07
363.15 K, 8010 kPa | 752.18
363.15 K, 9000 kPa | 753.27
363.15 K, 10030 kPa | 754.35
363.15 K, 11010 kPa | 755.41
363.15 K, 12010 kPa | 756.47
363.15 K, 13010 kPa | 757.5
363.15 K, 14000 kPa | 758.53
363.15 K, 15020 kPa | 759.54
363.15 K, 16010 kPa | 760.54
363.15 K, 17030 kPa | 761.52
363.15 K, 18010 kPa | 762.51
363.15 K, 19000 kPa | 763.47
363.15 K, 20020 kPa | 764.42
